In patent US7833998B2, “Oral neurotherapeutic cephalosporin sulfoxide and sulfone-containing compositions” (Revaax Pharmaceuticals, LLC, priority 2003, dated 2010):

Legend:
golden hamsters = settings: King et al. 2001; effective anxiolytics at doses of 1 μg/kg and above; cited from earlier work
Wistar rats [1] = settings: rat, literature validation of the method; cited from earlier work
Wistar rats [2] = test: elevated plus-maze; type: in vivo, rat
From the text: The elevated plus-maze was developed for the assessment of anxiolytic and anxiogenic drug effects in the rat (Pellow et al., (1985) Journal of Neuroscience Methods 14: 149-167). The method has been validated behaviorally, physiologically, and pharmacologically. The plus-maze has two open arms and two enclosed arms. […] Conversely, anxiogenic compounds such as yohimbin or amphetamines reduce open arm entries and time spent in the open arms.
Method. Male Wistar rats weighing 250-300 g were group housed in a normal 12:12 light-dark cycle light on at 0800 hour and provided food and water ad libitum. The plus-maze consisted of two open arms, 50×10 cm, and two enclosed arms 50×10×40 cm with an open roof, arranged such that the two open arms were opposite to each other. The maze was elevated to a height of 50 cm. Four groups of five animals each were tested in the plus-maze 90 minutes following oral gavage of either vehicle, or 100 ng/kg, 10 μg/kg, or 1 mg/kg of delta-2-cefazolin-1-sulfoxide (Δ^2-cefazolin sulfoxide). At the start of the experiment the animal was place in the center of the plus maze facing the closed arm. Over a 3 minute observation period, animals were scored for the latency to enter the closed arm, time spent in the closed arm, and the number of open arm entries following the first occupation of the closed arm.

[3] = system: Syrian golden hamsters (Mesocricetus auratus); test: resident/intruder model of offensive aggression (serenic activity); type: in vivo
From the text: Agonistic behavior can be classified as either offensive or defensive aggression (Blanchard, R. J., Blanchard, D. C. (1977) Physiology and Behavior, 1, 197-224; Adams, D. B. (1979) The Behavioral Brain Sciences, 2, 201-241; Albert, D. J. and Walsh, M. L. (1984) Neuroscience and Behavioral Reviews, 8, 5-24). Offensive aggression is characterized by the aggressor initiating an attack on an opponent, while defensive aggression lacks active approach. Both types of aggression have their own unique neurobehavioral systems. The stimuli that elicit offensive and defense attacks are different, as are the sequences of behaviors that accompany each agonistic response. […] Offensive aggression is easily studied using male golden hamsters tested in a resident/intruder paradigm, an established model of offensive aggression ([…]. (1988) Physiology and Behavior, 44, 235-239). Placing an unfamiliar male hamster into the home cage of another male hamster elicits a well-defined sequence of agonistic behaviors from the resident that includes offensive aggression. Animal Care. Male Syrian golden hamsters (Mesocricetus auratus) (140-150 g) obtained from Harlan Sprague-Dawley Laboratories (Indianapolis, Ind.) were housed individually in Plexiglas cages (24 cm×24 cm×20 cm), maintained on a reverse light:dark cycle ([…]:10D; lights on at 19:00 hr) and provided food and water ad libitum. Animals were acclimated to the reverse light:dark cycle for at least two weeks before testing. All behavioral tests were conducted during the dark phase of the circadian cycle. Behavioral Measures and Analysis. Hamsters are nocturnal and as such behavioral tests were performed during the first four hours of the dark phase under dim red illumination. The resident was scored for offensive aggression, e.g., latency to bite the intruder, total contact time with the intruder, the total number of bites, and flank marking, over a 10 minute test period ([…]. (1988) Physiology and Behavior, 44, 235-239). Flank marking is a form of olfactory communication in which a hamster arches its back and rubs pheromone producing flank glands against objects in the environment (Johnston, R. E. (1985) Communication, In: THE HAMSTER REPRODUCTION AND BEHAVIOR. Ed Siegel, H. I. Plenum Press, New York, pp 121-154). […] Parametric data, i.e., latencies and contact time, were analyzed with a one-way ANOVA followed by Newman-Keuls post hoc tests. Non-parametric data, i.e., number of bites and flank marks, were analyzed with Kruskal-Wallis tests followed by Mann-Whitney U tests to determine differences between groups. Method. […] Ninety min after oral gavage an intruder was placed into the home cage and the resident scored for offensive aggression. Following aggression testing, animals were screened for motor activity in an open field paradigm and sexual motivation (FIGS. 4a-b).

[4] = system: Syrian golden hamsters (Mesocricetus auratus); settings: in vivo, po
From the text: Method. […] Ninety min after oral gavage an intruder was placed into the home cage and the resident scored for offensive aggression. Following aggression testing, animals were screened for motor activity in an open field paradigm and sexual motivation (FIGS. 4a-b).

BALBc mice = test: radial arm maze, learning and memory; type: in vivo, mouse; settings: intra-peritoneal 2.5 ng, 250 ng, 25 μg/kg
From the text: The radial arm maze is one of the most commonly used methods for testing spatial learning and memory in rodents. Developed by Olton and co-workers (Olton, D. S., Samuelson, R. J. (1976) J. Experimental Psychology, 2: 97-115), the maze provides the simultaneous choice of several alternative paths for the test subject. Animals must learn which locations provide food (place learning) using visuospatial cues. Animal care. Male BALBc mice weighing 21-23 gm were housed individually in a normal 12:12 light-dark cycle (light on at 0600 hr) and provide food and water ad libitum. The method described below was reported by Crusio et al., (1987) Brain Research, 425: 182-185. The radial arm maze consisted of a central platform and eight arms made of transparent Plexiglas. The central part measured 22 cm in diameter. The closed arms were 25 cm long, 6 cm high and 6 cm wide. Several fresh food pellets were deposited beyond the end of each arm behind a perforated wall. This arrangement served to prevent the animals from selecting a baited arm by smelling the presence or absence of a reward. […] Entry to an arm was counted when the mouse reached the perforated wall. […] The number of errors was recorded for each day of training. […] Dose response effects were assessed by means of a repeated measured two-way ANOVA followed by Bonferroni's post hoc test.

[5] = system: extracellular neurotransmitter levels in the area of the nucleus accumbens; test: microdialysis of nucleus accumbens, electrochemical detection of metabolites; type: in vivo, Sprague Dawley rats; settings: rats, intra-peritoneal 10 ng to 100 μg/kg, dialysate 15-75 minutes post-treatment
Procedure: To test this hypothesis, extracellular neurotransmitter levels in the area of the nucleus accumbens were assessed with microdialysis following Δ^3-cefazolin sulfoxide treatment. The accumbens is part of the limbic forebrain best know for its association with the pathophysiology of schizophrenia, conditioned reinforcement and drug addiction but also thought to be involved in sensitization to early life trauma leading to the anxiety disorder PTSD or post traumatic stress disorder (Charney and Bremner (1999) The neurobiology of anxiety disorder. In: NEUROBIOLOGY OF MENTAL ILLNESS (Cahrney, D S, et al eds.), Oxford University Press, New York, pgs 494-517).
Method. Twenty-four male Sprague Dawley rats were anesthetized with sodium pentobarbital (50 mg/kg) and implanted with a unilateral microdialysis guide cannula aimed at the nucleus accumbens. Animals were divided into six groups of four animals each and treated with a range of cefazolin doses (saline vehicle, 10 ng, 100 ng, 1 μg, 10 μg, 100 μg/kg) (FIGS. 6a-c). Two days after recovery from surgery a microdialysis probe (2 mm) was lowered to the area and connected to an infusion pump through Tygon tubing. The dialysate was artificial CSF at pH 7.4 delivered at a flow rate of 1.8 μl/min. The first 30 minutes of dialysate was discarded. Thereafter, samples were collected at 15 minute intervals 45 minutes prior to and 75 minutes following intra-peritoneal administration of Δ^3-cefazolin sulfoxide. Samples were collected into microfuge tubes containing 5 μl of 0.16 N perchloric acid to stabilize catecholamines. At the end of the study, animals were sacrificed and the brains prepared for histology to verify the site of the microdialysis probe.
The levels of dopamine metabolites DOPAC (FIG. 6a) and HVA (FIG. 6b) and serotonin metabolite HIAA (FIG. 6c) were assessed by electrochemical detection. […] Measures from each of the four remaining samples collected between 15-75 minutes post-treatment were analyzed. […] Mean values were analyzed with a one-way ANOVA followed by Bonferroni's post hoc test.

Compound: CNCCCN1c2ccccc2CCc2ccccc21 [desipramine]
- effect on seed finding (golden hamsters): ineffective

Compound: COC(=O)[C@@H]1[C@H]2C[C@H]3c4[nH]c5ccccc5c4CCN3C[C@@H]2CC[C@@H]1O [yohimbine]
- effect on seed finding (golden hamsters): ineffective
- number of entries into the open arms (Wistar rats [1]): reduce
- percentage of time spent in the open arms (Wistar rats [1]): reduce

Compound: delta-2-cefazolin-1-sulfoxide
- anxiolytic activity in the elevated plus-maze (Wistar rats [2]; given orally to rats): dose-dependent anxiolytic activity
- latency to enter the closed arm (Wistar rats [2]; rats, oral gavage 100 ng/kg, 10 μg/kg, 1 mg/kg, 90 min, 3 minute observation, vs vehicle (FIG. 2a)): increased
- time spent in the open arm (Wistar rats [2]; rats, oral gavage 100 ng/kg, 10 μg/kg, 1 mg/kg, 90 min, vs vehicle (FIG. 2b)): significantly increased (p<0.01)
- serenic activity, inhibiting offensive aggression ([3]; oral gavage): very effective serenic
- flank marking ([3]; oral gavage 100 ng/kg, 10 μg/kg, 1 mg/kg, 90 min, 10 minute test (FIG. 3d)): significantly increased
- latency to bite ([3]; oral gavage 100 ng/kg, 10 μg/kg, 1 mg/kg, 90 min, 10 minute test, p<0.01 (FIG. 3a)): significantly increased
- number of bites ([3]; oral gavage 100 ng/kg, 10 μg/kg, 1 mg/kg, 90 min, 10 minute test, p<0.01 (FIG. 3c)): decreased
- contact time ([3]; oral gavage, 90 min, 10 minute test, highest dose (1 mg/kg) (FIG. 3b)): significantly reduced at the highest dose
- motor activity (open field) [4]: no change
- sexual motivation [4]: no change

Compound: CNCCC(Oc1ccc(C(F)(F)F)cc1)c1ccccc1 (centres unmarked) [fluoxetine]
- effect on seed finding (golden hamsters): dramatically reduce

Compound: CN1C(=O)CN=C(c2ccccc2)c2cc(Cl)ccc21 [diazepam]
- number of entries into the open arms (Wistar rats [1]): significantly increase
- percentage of time spent in the open arms (Wistar rats [1]): significantly increase

Compound: O=C1CC2(CCCC2)CC(=O)N1CCCCN1CCN(c2ncccn2)CC1 [buspirone]
- effect on seed finding (golden hamsters): dramatically reduce

Compound: Cc1nnc(SCC2=C(C(=O)O)N3C(=O)[C@@H](NC(=O)Cn4cnnn4)[C@H]3[S+]([O-])C2)s1 (some centres unmarked) [Δ^3-cefazolin sulfoxide, cefazolin-1-sulfoxide]
- number of errors (BALBc mice; day five, vs vehicle): no significant difference
- number of errors (BALBc mice; testing days three and four, vs vehicle control (*p<0.05, **p<0.01) (FIG. 5)): significantly reduced
- DOPAC levels (dopamine metabolite) ([5]; pg/15 μl (FIG. 6a)): significant (*p<0.05; **p<0.01) dose-dependent increase
- HVA levels (dopamine metabolite) ([5]; pg/15 μl (FIG. 6b)): significant (*p<0.05; **p<0.01) dose-dependent increase
- HIAA levels (serotonin metabolite) ([5]; pg/15 μl (FIG. 6c)): significant (*p<0.05; **p<0.01) dose-dependent increase
